Test systems include ACHN renal; CAKI-1 renal; EKVX NSCLC; HCT-116 colon; HS 578T breast; KM12 colon; NCI-H23 lung; NCI-H522 lung; NCI/ADR-RES ovarian; SN12C renal.
Holding throughout (experiment): NCI-60 cell line screen, 48 h

Molecules are shown by their SMILES.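 Values below derive from 48-hour exposures of cells grown in 96-well plates, with endpoints linearly interpolated between the two concentrations bracketing the appropriate inhibition level. GI50: concentration for 50% inhibition of growth. TGI: concentration producing complete growth inhibition.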 Some results are limits rather than exact numbers.

Consider `O=c1cc(-c2cccc3c2Sc2ccccc2S3)oc(N2CCOCC2)c1`, for which the GI50 in the assay on ACHN renal was 11.4 µM; in the assay with CAKI-1 renal, 5.3 µM; in the assay with EKVX NSCLC, 10.2 µM; in the assay with HCT-116 colon it was 9.55 µM; with HS 578T breast, 3.08 µM; in the assay with KM12 colon, 8.04 µM. Also, the GI50 was 15.5 µM with NCI-H23 lung, 8.01 µM with NCI-H522 lung, 12.8 µM in the assay with NCI/ADR-RES ovarian and 6.17 µM in the assay with SN12C renal. Besides, the TGI in the assay on ACHN renal was found to be 26.5 µM; in the assay on CAKI-1 renal, 18.9 µM; with EKVX NSCLC, 25 µM; with HCT-116 colon it was 22.6 µM; in the assay with HS 578T breast it was 19.5 µM; in the assay on KM12 colon, 21.4 µM. Besides, the TGI was determined as 36.9 µM in the assay with NCI-H23 lung, 22.6 µM in the assay on NCI-H522 lung, 42.9 µM in the assay on NCI/ADR-RES ovarian and 21.8 µM in the assay with SN12C renal.

As to `COC(=O)c1cc(O)c2cc3c(cc2c1-c1cc(OC)c(OC)c(OC)c1)OCO3`, the GI50 in the assay with ACHN renal was 2.59 µM; with CAKI-1 renal, 0.344 µM; in the assay with EKVX NSCLC, 2.63 µM; in the assay on HCT-116 colon, 0.604 µM; with HS 578T breast it was 1.43 µM; in the assay with KM12 colon, 0.503 µM. The GI50 in the assay on NCI-H23 lung was 3.77 µM; in the assay on NCI-H522 lung, 0.272 µM; in the assay with NCI/ADR-RES ovarian it was 0.462 µM. In addition, the TGI was > 100 µM with ACHN renal; 5.46 µM in the assay on CAKI-1 renal; > 100 µM in the assay on EKVX NSCLC; > 100 µM in the assay with HCT-116 colon; 9.48 µM in the assay on HS 578T breast; > 100 µM with KM12 colon. Further, the TGI with NCI-H23 lung was > 100 µM; in the assay with NCI-H522 lung, 1.13 µM; in the assay with NCI/ADR-RES ovarian it was > 100 µM.

For `NCCOCCOCCNc1nc(-c2ccccc2)nc(N2CCN(c3ccccn3)CC2)n1`, the GI50 with ACHN renal is 14.5 µM; with CAKI-1 renal, 15.9 µM; in the assay on HCT-116 colon, 10 µM; in the assay on HS 578T breast, 15.4 µM; in the assay on KM12 colon, 16.1 µM; with NCI-H23 lung, 16.6 µM. The figures for the GI50 with NCI/ADR-RES ovarian and in the assay on SN12C renal were 16 µM and 17.1 µM, respectively. For the same molecule, the TGI in the assay on ACHN renal came out at 27.9 µM; with CAKI-1 renal, 31.5 µM; in the assay with HCT-116 colon, 22.6 µM; in the assay with HS 578T breast it was 41 µM; in the assay with KM12 colon, 31 µM; in the assay with NCI-H23 lung it was 31.3 µM. For the same molecule, the figures for the TGI with NCI/ADR-RES ovarian and in the assay with SN12C renal were 32.4 µM and 32.8 µM, respectively.

As to `C=C1CCC2C3(C)COC(c4ccccc4)OC3CCC2(C)C1/C=C/C1=CCOC1=O` (centres undefined), the GI50 is 8.74 µM with ACHN renal; 13.7 µM with EKVX NSCLC; 1.95 µM in the assay on HCT-116 colon; 1.86 µM in the assay with HS 578T breast; 2.91 µM with KM12 colon; 9.68 µM in the assay with NCI-H23 lung. The GI50 was 3.65 µM with NCI-H522 lung, 3.17 µM in the assay on NCI/ADR-RES ovarian and 3.82 µM in the assay on SN12C renal. Also, the TGI in the assay on ACHN renal was 22 µM; with EKVX NSCLC, > 100 µM; in the assay on HCT-116 colon, 5.64 µM; in the assay on HS 578T breast it was 8.61 µM; in the assay with KM12 colon, 11.4 µM; in the assay with NCI-H23 lung it was 24.2 µM. The results for the TGI with NCI-H522 lung, in the assay on NCI/ADR-RES ovarian and in the assay with SN12C renal were 14.9 µM, > 100 µM and 15.9 µM, respectively.

`[N-]=[N+]=NC(c1cn(C2CC(O)C(CO)O2)c(=O)[nH]c1=O)C(Cl)I` (centres undefined): the TGI in the assay with ACHN renal, in the assay on EKVX NSCLC, with HCT-116 colon, with HS 578T breast, in the assay on KM12 colon and in the assay on NCI-H23 lung was > 100 µM throughout. The TGI in the assay on NCI/ADR-RES ovarian and in the assay on SN12C renal was > 100 µM each time.

As for `CCOC(=O)C1c2[nH]c3ccccc3c2CCN1C(=O)c1ccc(OC)o1` (centres undefined), the TGI in the assay on ACHN renal, in the assay with CAKI-1 renal, in the assay with EKVX NSCLC, in the assay on HS 578T breast, in the assay on KM12 colon and with NCI-H23 lung was > 10 µM throughout. Besides, the TGI in the assay with NCI-H522 lung, with NCI/ADR-RES ovarian and with SN12C renal was > 10 µM in each case.

On to `C/C1=C/C(=O)O[C@@H]2C[C@@H](CC[C@H](C)/C=C\C=C\CC1)O[C@@](O)([C@@H]1CSC(=O)N1)C2`, for which the TGI is > 10 µM in the assay on ACHN renal; 0.619 µM in the assay with CAKI-1 renal; > 5.52 µM in the assay on EKVX NSCLC; > 10 µM with HCT-116 colon; 0.512 µM in the assay on HS 578T breast; > 10 µM with KM12 colon. The TGI in the assay with NCI-H23 lung, in the assay on NCI/ADR-RES ovarian and in the assay with SN12C renal was > 10 µM in each case.

`O=Nc1ccc(NO)c2ccccc12`: the GI50 with ACHN renal is 12.6 µM; with CAKI-1 renal it was 12.2 µM; in the assay with HCT-116 colon it was 3.15 µM; with HS 578T breast, 28.3 µM; in the assay with KM12 colon, 15.6 µM; in the assay on NCI-H23 lung it was 7.03 µM. Further, the values for the GI50 with NCI-H522 lung, in the assay with NCI/ADR-RES ovarian and in the assay on SN12C renal were 13.2 µM, 2.92 µM and 2.68 µM, respectively. Also, the TGI in the assay on ACHN renal is 25.9 µM; with CAKI-1 renal, 25.2 µM; in the assay with HCT-116 colon, 12.7 µM; in the assay on HS 578T breast it was > 100 µM; in the assay with KM12 colon it was 30.4 µM; with NCI-H23 lung it was 23.5 µM. Moreover, the TGI with NCI-H522 lung stood at 27 µM; in the assay with NCI/ADR-RES ovarian it was 15.8 µM; with SN12C renal, 11 µM.

On to `CCN(CC)c1ccc(C(O)C2=CC(=O)c3ccccc3C2=O)cc1` (centres undefined), for which the GI50 was 1.75 µM in the assay with ACHN renal; 2.31 µM in the assay on CAKI-1 renal; 4.01 µM in the assay with EKVX NSCLC; 1.76 µM in the assay with HCT-116 colon; 1.32 µM in the assay on HS 578T breast; 1.33 µM with NCI-H23 lung. Moreover, the results for the GI50 in the assay with NCI-H522 lung, in the assay on NCI/ADR-RES ovarian and in the assay with SN12C renal were 1.79 µM, > 32.9 µM and 1.38 µM, respectively. Further, the TGI with ACHN renal amounted to 4.6 µM; in the assay on CAKI-1 renal, 7.4 µM; in the assay with EKVX NSCLC, 15.7 µM; with HCT-116 colon, 3.14 µM; in the assay with HS 578T breast, 5.53 µM; with NCI-H23 lung it was 3.02 µM. In addition, the TGI was 4.19 µM in the assay with NCI-H522 lung, > 100 µM in the assay on NCI/ADR-RES ovarian and 4.83 µM in the assay on SN12C renal.

These data come from PubChem BioAssay (NCI).
